Experimental data: ChEMBL document CHEMBL5614445, “Asymmetric Dirhodium-Catalyzed Modification of Immunomodulatory Imide Drugs and Their Biological Assessment” (ACS Med Chem Lett, 2024)

Assays:
Type in all cases: cell-based
[1] = target: Zinc finger protein Aiolos (Homo sapiens) (UniProt Q9UKT9); assay: Induction of N-terminal HiBiT tag knocked in IKZF3 degradation in human DF15 cells assessed as remaining protein level incubated for 60 mins by Nano-Glo HiBiT lytic reagent based assay relative to control
Zinc finger protein Aiolos (Homo sapiens), sequence (Q9UKT9 whole entry): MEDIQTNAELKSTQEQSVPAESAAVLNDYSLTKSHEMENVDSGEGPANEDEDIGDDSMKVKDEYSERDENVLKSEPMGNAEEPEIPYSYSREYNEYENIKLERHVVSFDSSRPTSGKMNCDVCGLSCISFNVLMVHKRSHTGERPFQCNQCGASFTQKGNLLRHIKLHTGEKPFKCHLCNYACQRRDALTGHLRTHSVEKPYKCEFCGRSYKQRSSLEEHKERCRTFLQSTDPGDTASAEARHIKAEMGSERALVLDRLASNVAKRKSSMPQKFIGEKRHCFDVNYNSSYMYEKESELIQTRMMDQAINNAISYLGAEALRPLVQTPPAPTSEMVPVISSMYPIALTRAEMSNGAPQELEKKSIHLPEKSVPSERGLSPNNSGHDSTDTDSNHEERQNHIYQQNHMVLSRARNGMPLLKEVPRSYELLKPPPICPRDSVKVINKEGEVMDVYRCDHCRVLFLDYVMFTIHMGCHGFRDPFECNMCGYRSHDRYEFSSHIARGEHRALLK

[2] = target: T1, Eukaryotic peptide chain release factor GTP-binding subunit ERF3A (Homo sapiens, UniProt P15170); assay: Induction of ePL tagged GSPT1 degradation in human DF15 cells assessed as remaining protein level incubated for 60 mins by luminescence reader assay relative to control
T1 sequence (P15170 whole entry, canonical isoform): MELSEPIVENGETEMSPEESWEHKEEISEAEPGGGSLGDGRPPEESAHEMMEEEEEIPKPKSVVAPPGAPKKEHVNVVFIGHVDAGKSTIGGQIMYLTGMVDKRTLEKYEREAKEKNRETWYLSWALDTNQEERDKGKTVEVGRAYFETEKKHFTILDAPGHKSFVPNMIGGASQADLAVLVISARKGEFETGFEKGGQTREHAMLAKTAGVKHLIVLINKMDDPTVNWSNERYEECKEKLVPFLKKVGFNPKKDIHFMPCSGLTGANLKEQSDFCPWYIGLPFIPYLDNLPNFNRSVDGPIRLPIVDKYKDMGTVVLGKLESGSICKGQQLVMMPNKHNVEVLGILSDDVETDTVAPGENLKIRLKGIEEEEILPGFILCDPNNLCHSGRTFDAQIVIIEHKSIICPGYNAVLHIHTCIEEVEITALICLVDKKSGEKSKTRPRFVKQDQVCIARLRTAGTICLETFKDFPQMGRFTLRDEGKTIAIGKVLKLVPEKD

[3] = target: Casein kinase I isoform alpha (Homo sapiens) (UniProt P48729); assay: Induction of ePL tagged CK1alpha degradation in human MDS-L cells assessed as remaining protein level incubated for 60 mins by luminescence reader assay relative to control
Casein kinase I isoform alpha (Homo sapiens), sequence (P48729 2-337 limits assumed): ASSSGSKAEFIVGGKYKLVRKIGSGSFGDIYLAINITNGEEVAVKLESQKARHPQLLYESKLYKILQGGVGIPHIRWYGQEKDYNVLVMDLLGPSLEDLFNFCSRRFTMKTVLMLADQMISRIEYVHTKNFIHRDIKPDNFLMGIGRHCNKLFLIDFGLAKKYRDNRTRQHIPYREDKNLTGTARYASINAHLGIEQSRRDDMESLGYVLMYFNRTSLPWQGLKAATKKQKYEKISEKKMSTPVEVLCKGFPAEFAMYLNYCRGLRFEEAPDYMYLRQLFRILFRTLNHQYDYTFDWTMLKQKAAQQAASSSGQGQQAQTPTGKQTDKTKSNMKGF

[4] = target: T1, Eukaryotic peptide chain release factor GTP-binding subunit ERF3A; assay: Induction of ePL tagged GSPT1 degradation in human DF15 cells incubated for 60 mins by luminescence reader assay; conditions: read-out: EC50 (the source's name)

Activity [1] [%] | Activity [2] [%] | Structure (SMILES) | also measured
79 |  | O=C1CCC(N2Cc3c(cccc3[C@@H]3C[C@]3(C(=O)OCC(Cl)(Cl)Cl)c3ccc(Br)cc3)C2=O)C(=O)N1 (some centres undefined) | 
 | 2.3 | O=C1CCC(N2C(=O)c3ccc(C4=C[C@]4(C(=O)OCC(Cl)(Cl)Cl)c4ccc(Br)cc4)cc3C2=O)C(=O)N1 (some centres undefined) | 
 |  | O=C1CCC(N2Cc3cc([C@H]4C[C@@]4(C(=O)OCC(Cl)(Cl)Cl)c4ccc(Br)cc4)ccc3C2=O)C(=O)N1 (some centres undefined) | Activity [3]: 44%
 | 1.4 | O=C1CCC(N2C(=O)c3ccc(C4=C[C@@]4(C(=O)OCC(Cl)(Cl)Cl)c4ccc(Br)cc4)cc3C2=O)C(=O)N1 (some centres undefined) | DC50 [4]: 1400 nM
 | 100 | O=C1CCC(N2C(=O)c3ccc([C@@H]4C[C@]4(C(=O)OCC(Cl)(Cl)Cl)c4ccc(Br)cc4)cc3C2=O)C(=O)N1 (some centres undefined) | 
9.2 |  | O=C1CCC(N2Cc3c(cccc3C3=C[C@]3(C(=O)OCC(Cl)(Cl)Cl)c3ccc(Br)cc3)C2=O)C(=O)N1 (some centres undefined) | 
99 |  | O=C1CCC(N2C(=O)c3cccc([C@H]4C[C@@]4(C(=O)OCC(Cl)(Cl)Cl)c4ccc(Br)cc4)c3C2=O)C(=O)N1 (some centres undefined) | 
 |  | O=C1CCC(N2Cc3cc([C@@H]4C[C@]4(C(=O)OCC(Cl)(Cl)Cl)c4ccc(Br)cc4)ccc3C2=O)C(=O)N1 (some centres undefined) | Activity [3]: 92%
